Earlier results as cited in patent US20140302138A1, “EXTENDED RELEASE PHARMACEUTICAL COMPOSITIONS CONTAINING CARBAMAZEPINE” (priority 2011, published 2014).

solubility in acetone (acetone): soluble | solubility in alcohol (alcohol): soluble | solubility in water (water): practically insoluble
Structure (SMILES): NC(=O)N1c2ccccc2C=Cc2ccccc21 [Carbamazepine, 5H-dibenzo[b,f]azepine-5-carboxamide]
